Laboratory results reported in patent US20160159816A1, “SUBSTITUTED THIENOPYRIMIDINES AND PHARMACEUTICAL USE THEREOF” (BAYER PHARMA AKTIENGESELLSCHAFT, priority 2013, published 2016).

The compounds below were run against T1, human full-length MKNK1 (Homo sapiens, UniProt Q9BUB5, T385D) (assay: MKNK1 kinase high ATP assay (TR-FRET)). Settings: high ATP (2 mM), after preincubation with MKNK1; compounds of the present invention (Table 1a).
T1 construct: GST (N); purchased Carna Biosciences 02-145; host or cells: insect cells, baculovirus expression system
Assay type: biochemical
Protocol: MKNK1-inhibitory activity at high ATP of compounds of the present invention after their preincubation with MKNK1 was quantified employing the TR-FRET-based MKNK1 high ATP assay as described in the following paragraphs.
A recombinant fusion protein of Glutathione-S-Transferase (GST, N-terminally) and human full-length MKNK1 (amino acids 1-424 and T344D of accession number BAA 19885.1), expressed in insect cells using baculovirus expression system and purified via glutathione sepharose affinity chromatography, was purchased from Carna Biosciences (product no 02-145) and used as enzyme. As substrate for the kinase reaction the biotinylated peptide biotin-Ahx-IKKRKLTRRKSLKG (C-terminus in amide form) was used, which can be purchased e.g. from the company Biosyntan (Berlin-Buch, Germany).
For the assay 50 nL of a 100 fold concentrated solution of the test compound in DMSO was pipetted into a black low volume 384 well microtiter plate (Greiner Bio-One, Frickenhausen, Germany), 2 μL of a solution of MKNK1 in aqueous assay buffer [50 mM HEPES pH 7.5, 5 mM MgCl2, 1.0 mM dithiothreitol, 0.005% (v/v) Nonidet-P40 (Sigma)] was added and the mixture was incubated for 15 min at 22° C. to allow pre-binding of the test compounds to the enzyme before the start of the kinase reaction. Then the kinase reaction was started by the addition of 3 μL of a solution of adenosine-tri-phosphate (ATP, 3.3 mM=>final conc. in the 5 μL assay volume is 2 mM) and substrate (0.1 μM=>final conc. in the 5 μL assay volume is 0.06 μM) in assay buffer and the resulting mixture was incubated for a reaction time of 30 min at 22° C. The concentration of MKNK1 was adjusted depending of the activity of the enzyme lot and was chosen appropriate to have the assay in the linear range, typical concentrations were in the range of 0.003 μg/mL. The reaction was stopped by the addition of 5 μL of a solution of TR-FRET detection reagents (5 nM streptavidine-XL665 [Cisbio Bioassays, Codolet, France] and 1 nM anti-ribosomal protein […] (pSer236)-antibody from Invitrogen [#44921G] and 1 nM LANCE EU-W1024 labeled ProteinG [Perkin-Elmer, product no. AD0071]) in an aqueous EDTA-solution (100 mM EDTA, 0.1% (w/v) bovine serum albumin in 50 mM HEPES pH 7.5).
The resulting mixture was incubated for 1 h at 22° C. to allow the formation of complex between the phosphorylated biotinylated peptide and the detection reagents. Subsequently the amount of phosphorylated substrate was evaluated by measurement of the resonance energy transfer from the Eu-chelate to the streptavidine-XL. Therefore, the fluorescence emissions at 620 nm and 665 nm after excitation at 350 nm were measured in a TR-FRET reader, e.g. a Rubystar (BMG Labtechnologies, Offenburg, Germany) or a Viewlux (Perkin-Elmer). The ratio of the emissions at 665 nm and at […] was taken as the measure for the amount of phosphorylated substrate. The data were normalised (enzyme reaction without inhibitor=0% inhibition, all other assay components but no enzyme=100% inhibition). […] Table 1a lists MKNK1 high ATP IC50 values of some compounds of the present invention.

T1 sequence (Q9BUB5 1-424 isoform Q9BUB5-2 T344D): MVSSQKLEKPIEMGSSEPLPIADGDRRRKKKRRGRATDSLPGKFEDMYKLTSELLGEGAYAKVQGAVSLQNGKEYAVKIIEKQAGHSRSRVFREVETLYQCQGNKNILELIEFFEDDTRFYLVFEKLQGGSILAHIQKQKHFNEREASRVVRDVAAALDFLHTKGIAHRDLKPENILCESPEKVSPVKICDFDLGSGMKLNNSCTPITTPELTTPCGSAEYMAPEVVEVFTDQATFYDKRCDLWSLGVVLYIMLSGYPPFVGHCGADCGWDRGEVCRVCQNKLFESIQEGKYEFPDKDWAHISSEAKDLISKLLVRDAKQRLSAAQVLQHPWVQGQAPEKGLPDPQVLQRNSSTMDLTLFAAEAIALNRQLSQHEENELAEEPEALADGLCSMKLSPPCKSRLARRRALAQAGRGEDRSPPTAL

Row | IC50 [nM] | Compound
1 | 2 | COc1cc2[nH]ncc2cc1Nc1ncnc2sc3c(c12)CC[C@](C)(C(=O)N1CCOCC1)C3 [Example 52, (7S) {4-[(6-Methoxy-1H-indazol-5-yl)amino]-7-methyl-5,6,7,8-tetrahydro[1]benzothieno[2,3-d]pyrimidin-7-yl}(morpholin-4-yl)methanone]
2 | 16.9 | OCc1cnnn1C[C@@H]1CCc2c(sc3ncnc(Nc4ccc5[nH]ncc5c4)c23)C1 (single isomer, unassigned) [Example 33, (1-{[(7R or 7S)-4-(1H-Indazol-5-ylamino)-5,6,7,8-tetrahydro[1]benzothieno[2,3-d]pyrimidin-7-yl]methyl}-1H-1,2,3-triazol-5-yl)methanol]
3 | 20.4 | CC[C@@]1(C(=O)N(C)OC)CCc2c(sc3ncnc(Nc4cc5cn[nH]c5cc4OC)c23)C1 [Example 66, (7R) 7-Ethyl-N-methoxy-4-[(6-methoxy-1H-indazol-5-yl)amino]-N-methyl-5,6,7,8-tetrahydro[1]benzothieno[2,3-d]pyrimidine-7-carboxamide]
4 | 3.2 | COc1cc2[nH]ncc2cc1Nc1ncnc2sc3c(c12)CCC(CO)C3 (racemic) [Example 17, (RS)-{4-[(6-Methoxy-1H-indazol-5-yl)amino]-5,6,7,8-tetrahydro[1]benzothieno[2,3-d]pyrimidin-7-yl}methanol]
5 | 9.1 | COCC1(OC)CCc2c(sc3ncnc(Nc4cc5cn[nH]c5cc4OC)c23)C1 (racemic) [Example 32, (RS)-7-Methoxy-N-(6-methoxy-1H-indazol-5-yl)-7-(methoxymethyl)-5,6,7,8-tetrahydro[1]benzothieno[2,3-d]pyrimidin-4-amine]
6 | 1.4 | CC[C@]1(C(=O)N(C)C(C)C)CCc2c(sc3ncnc(Nc4cc5cn[nH]c5cc4OC)c23)C1 [Example 73, (7S) 7-Ethyl-N-isopropyl-4-[(6-methoxy-1H-indazol-5-yl)amino]-N-methyl-5,6,7,8-tetrahydro[1]benzothieno[2,3-d]pyrimidine-7-carboxamide]
7 | 89 | COCC1(OC)CCc2c(sc3ncnc(Nc4cc5cn[nH]c5cc4F)c23)C1 (single isomer, unassigned) [Example 45, (7S) or (7R) N-(6-Fluoro-1H-indazol-5-yl)-7-methoxy-7-(methoxymethyl)-5,6,7,8-tetrahydro[1]benzothieno[2,3-d]pyrimidin-4-amine]
8 | 1.8 | CC[C@]1(C(=O)N(C)OC)CCc2c(sc3ncnc(Nc4cc5cn[nH]c5cc4OC)c23)C1 [Example 67, (7S) 7-Ethyl-N-methoxy-4-[(6-methoxy-1H-indazol-5-yl)amino]-N-methyl-5,6,7,8-tetrahydro[1]benzothieno[2,3-d]pyrimidine-7-carboxamide]
9 | 6.2 | COc1cc2[nH]ncc2cc1Nc1ncnc2sc3c(c12)CCC(CN)C3 (racemic) [Example 19, (RS)-7-(aminomethyl)-N-(6-methoxy-1H-indazol-5-yl)-5,6,7,8-tetrahydro[1]benzothieno[2,3-d]pyrimidin-4-amine]
10 | 74.3 | COCC1(OC)CCc2c(sc3ncnc(Nc4cc5cn[nH]c5cc4F)c23)C1 (single isomer, unassigned) [Example 44, (7R) or (7S) N-(6-Fluoro-1H-indazol-5-yl)-7-methoxy-7-(methoxymethyl)-5,6,7,8-tetrahydro[1]benzothieno[2,3-d]pyrimidin-4-amine]
11 | 5 | COc1cc2[nH]ncc2cc1Nc1ncnc2sc3c(c12)CCC(CNC(=O)[C@@H](O)Cc1ccccc1)C3 (mixture of isomers) [Example 23, (2R)-2-Hydroxy-N-({(7RS)-4-[(6-methoxy-1H-indazol-5-yl)amino]-5,6,7,8-tetrahydro[1]benzothieno[2,3-d]pyrimidin-7-yl}methyl)-3-phenylpropanamide]
12 | 20.5 | OCc1cn(C[C@@H]2CCc3c(sc4ncnc(Nc5ccc6[nH]ncc6c5)c34)C2)nn1 (single isomer, unassigned) [Example 34, (1-{[(7R or 7S)-4-(1H-Indazol-5-ylamino)-5,6,7,8-tetrahydro[1]benzothieno[2,3-d]pyrimidin-7-yl]methyl}-1H-1,2,3-triazol-4-yl)methanol]
13 | 13.5 | COc1cc2[nH]ncc2cc1Nc1ncnc2sc3c(c12)CCCC3 [Example 2, N-(6-methoxy-1H-indazol-5-yl)-5,6,7,8-tetrahydro[1]benzothieno[2,3-d]pyrimidin-4-amine]
14 | 149 | COCC1(OC)CCc2c(sc3ncnc(Nc4cc5cn[nH]c5cc4Cl)c23)C1 (racemic) [Example 31, (RS)—N-(6-Chloro-1H-indazol-5-yl)-7-methoxy-7-(methoxymethyl)-5,6,7,8-tetrahydro[1]benzothieno[2,3-d]pyrimidin-4-amine]
15 | 23.9 | COc1cc2[nH]ncc2cc1Nc1ncnc2sc3c(c12)CCC(CN=[N+]=[N-])C3 (racemic) [Example 18, (RS)-7-(Azidomethyl)-N-(6-methoxy-1H-indazol-5-yl)-5,6,7,8-tetrahydro[1]benzothieno[2,3-d]pyrimidin-4-amine]
16 | 2.1 | COc1cc2[nH]ncc2cc1Nc1ncnc2sc3c(c12)CCC(CNC(=O)C(C)C)C3 (racemic) [Example 21, (RS)—N-({4-[(6-Methoxy-1H-indazol-5-yl)amino]-5,6,7,8-tetrahydro[1]benzothieno[2,3-d]pyrimidin-7-yl}methyl)-2-methylpropanamide]
17 | 327 | CC1CCc2c(sc3ncnc(Nc4cc5cn[nH]c5cc4Cl)c23)C1 (racemic) [Example 26, (RS)—N-(6-Chloro-1H-indazol-5-yl)-7-methyl-5,6,7,8-tetrahydro[1]benzothieno[2,3-d]pyrimidin-4-amine]
18 | 50.9 | CC[C@@]1(C(=O)N2C[C@@H](C)O[C@@H](C)C2)CCc2c(sc3ncnc(Nc4cc5cn[nH]c5cc4OC)c23)C1 [Example 70, (7R) [(2R,6S)-2,6-Dimethylmorpholin-4-yl]{7-ethyl-4-[(6-methoxy-1H-indazol-5-yl)amino]-5,6,7,8-tetrahydro[1]benzothieno[2,3-d]pyrimidin-7-yl}methanone]
19 | 1.6 | CC[C@]1(C(=O)N2C[C@@H](C)O[C@@H](C)C2)CCc2c(sc3ncnc(Nc4cc5cn[nH]c5cc4OC)c23)C1 [Example 71, (7S) [(2R,6S)-2,6-Dimethylmorpholin-4-yl]{7-ethyl-4-[(6-methoxy-1H-indazol-5-yl)amino]-5,6,7,8-tetrahydro[1]benzothieno[2,3-d]pyrimidin-7-yl}methanone]
20 | 33.3 | COc1cc2[nH]ncc2cc1Nc1ncnc2sc3c(c12)CC[C@@](C)(C(=O)N1CCOC[C@H]1C)C3 [Example 55, (7R) {4-[(6-Methoxy-1H-indazol-5-yl)amino]-7-methyl-5,6,7,8-tetrahydro[1]benzothieno[2,3-d]pyrimidin-7-yl}[(3R)-3-methylmorpholin-4-yl]methanone]
21 | 89.2 | COCC1(OC)CCc2c(sc3ncnc(Nc4cc5cn[nH]c5cc4Cl)c23)C1 (single isomer, unassigned) [Example 46, (7R) or (7S) N-(6-Chloro-1H-indazol-5-yl)-7-methoxy-7-(methoxymethyl)-5,6,7,8-tetrahydro[1]benzothieno[2,3-d]pyrimidin-4-amine]
22 | 18.5 | c1nc(Nc2ccc3[nH]ncc3c2)c2c3c(sc2n1)CCCC3 [Example 3, N-(1H-Indazol-5-yl)-5,6,7,8-tetrahydro[1]benzothieno[2,3-d]pyrimidin-4-amine]
23 | 24.6 | CC[C@@]1(C(=O)N2CCC2)CCc2c(sc3ncnc(Nc4cc5cn[nH]c5cc4OC)c23)C1 [Example 68, (7R) Azetidin-1-yl{(7S)-7-ethyl-4-[(6-methoxy-1H-indazol-5-yl)amino]-5,6,7,8-tetrahydro[1]benzothieno[2,3-d]pyrimidin-7-yl}methanone]

Row | Compound | IC50 [nM]
24 | O=P(OCC1CCc2c(sc3ncnc(Nc4ccc5[nH]ncc5c4)c23)C1)(Oc1ccccc1)Oc1ccccc1 (racemic) [Example 5, (RS)-[4-(1H-Indazol-5-ylamino)-5,6,7,8-tetrahydro[1]benzothieno[2,3-d]pyrimidin-7-yl]methyl diphenyl phosphate] | 205
